System: HBV
Assay: HBV-DNA Antiviral Assay Using HepG2.2.15 Cells
Assay type: cell-based
Conditions: extracellular HBV DNA by qPCR, day 7
Procedure: The following assay procedure describes the HBV antiviral assay. This assay uses HepG2.2.15 cells, which have been transfected with HBV genome, and extracellular HBV DNA quantification as endpoint. Cell viability is assessed in parallel by measuring the intracellular ATP content using the CellTiter-Glo® reagent from Promega.
On day 0, HepG2.2.15 cells were seeded in 96-well plates at a density of 6.0×10^4 cells/well (0.1 mL/well). The cells were incubated at 37° C. and 5% CO2.
On day 1, the test articles were diluted and added to cell culture wells (8 concentrations, 4-fold dilution, in duplicate). GLS4, Tenofovir and Sorafenib were used as reference compounds. 100 μL of culture medium containing the compounds was added to the plate, and the final total volume per well was 200 μL. The final concentration of DMSO in the culture medium was 0.5%. The plate map of compound treatment is shown below. The cells were cultured at 37° C. and 5% CO2 for 3 days.
On day 4, the plates were refreshed with culture media with compounds.
On day 7, cell viability was assessed using the CellTiter-Glo®, and the cell culture supernatants were collected for determination of HBV DNA by qPCR.
Extracellular DNA was isolated with QIAamp 96 DNA Blood Kit per the manufacturer's manual. HBV DNA was then quantified by qPCR with HBV specific primers and probes as specified in Table 1 using the FastStart Universal MasterMix from Roche on an ABI-7900HT. The PCR cycle program consisted of 95° C. for 10 min, followed by 40 cycles at 95° C. for 15 sec and 60° C. for 1 min.
A DNA standard was prepared by dilution of the pAAV2 HBV1.3 plasmid with concentrations ranging from 10 to 1×10^7 copies/uL and used to generate a standard curve by plotting Ct value vs. the concentration of the HBV plasmid DNA standard. The quantity of HBV DNA in each sample was determined by interpolating from the standard curve.
Cell viability was calculated as follows: % Cell viability=(luminescence value of test sample−average luminescence value of blank)/(average luminescence value of 0.5% DMSO control−average luminescence of blank)×100%. HBV DNA inhibition was calculated as follows: 100-(HBV DNA copy number of test sample−HBV DNA copy number of ETV)/HBV DNA copy number of 0.5% DMSO control−HBV DNA copy number of ETV)×100%. The CC50, EC50 and EC90 values were determined by dose-response curves fitted by GraphPad Prism using “log (agonist) vs. response-Variable slope”.

[1] = Hepatitis B virus, HepG2.2.15, 168 h

SMILES	EC50	EC50 [1]
O=C(c1ccc(Cl)c(Cl)c1)N1CCS(=O)(=O)C(c2cccs2)C1 (single isomer, unassigned) [Compound 8a, (3,4-dichlorophenyl)-[1,1-dioxo-2-(2-thienyl)-1,4-thiazinan-4-yl]methanone]	500 to 5000 nM	–
O=C(c1ccc(Cl)c(Cl)c1)N1CCS(=O)(=O)C(c2cccs2)C1 (single isomer, unassigned) [Compound 8b, (3,4-dichlorophenyl)-[1,1-dioxo-2-(2-thienyl)-1,4-thiazinan-4-yl]methanone]	100 to 500 nM	–
Cc1cc(C(=O)N2CCS(=O)(=O)C(c3cccs3)C2)ccc1Cl (single isomer, unassigned) [Compound 9a, (4-chloro-3-methyl-phenyl)-[1,1-dioxo-2-(2-thienyl)-1,4-thiazinan-4-yl]methanone]	500 to 5000 nM	–
Cc1cc(C(=O)N2CCS(=O)(=O)C(c3cccs3)C2)ccc1Cl (single isomer, unassigned) [Compound 9b, (4-chloro-3-methyl-phenyl)-[1,1-dioxo-2-(2-thienyl)-1,4-thiazinan-4-yl]methanone]	100 to 500 nM	–
Cn1cnc(-c2ccc(C3CN(C(=O)c4ccc(Br)c(Cl)c4)CCS3(=O)=O)s2)c1 (single isomer, unassigned) [Compound 16a, (4-bromo-3-chloro-phenyl)-[2-[5-(1-methylimidazol-4-yl)-2-thienyl]-1,1-dioxo-1,4-thiazinan-4-yl]methanone]	100 to 500 nM	–
Cn1cnc(-c2ccc(C3CN(C(=O)c4ccc(Br)c(Cl)c4)CCS3(=O)=O)s2)c1 (single isomer, unassigned) [Compound 16b, (4-bromo-3-chloro-phenyl)-[2-[5-(1-methylimidazol-4-yl)-2-thienyl]-1,1-dioxo-1,4-thiazinan-4-yl]methanone]	500 to 5000 nM	–
O=C(c1ccc(Br)c(Cl)c1)N1CCS(=O)(=O)C(c2cccs2)C1 (stereo not shown) [Compound 6a, (4-bromo-3-chloro-phenyl)-[1,1-dioxo-2-(2-thienyl)-1,4-thiazinan-4-yl]methanone]	–	≤ 100 nM
O=C(c1ccc(Br)c(Cl)c1)N1CCS(=O)(=O)C(c2cccs2)C1 (stereo not shown) [Compound 6b, (4-bromo-3-chloro-phenyl)-[1,1-dioxo-2-(2-thienyl)-1,4-thiazinan-4-yl]methanone]	100 to 500 nM	–
O=C(c1ccc(Cl)cc1F)N1CCS(=O)(=O)C(c2cccs2)C1 (stereo not shown) [Compound 10a, (4-chloro-2-fluoro-phenyl)-[1,1-dioxo-2-(2-thienyl)-1,4-thiazinan-4-yl]methanone]	–	> 5000 nM
O=C(c1ccc(Cl)cc1Cl)N1CCS(=O)(=O)C(c2cccs2)C1 (stereo not shown) [Compound 11a, (2,4-dichlorophenyl)-[1,1-dioxo-2-(2-thienyl)-1,4-thiazinan-4-yl]methanone]	–	500 to 5000 nM
O=C(c1cccc(Cl)c1F)N1CCS(=O)(=O)C(c2cccs2)C1 (stereo not shown) [Compound 14a, (3-chloro-2-fluoro-phenyl)-[1,1-dioxo-2-(2-thienyl)-1,4-thiazinan-4-yl]methanone]	–	> 5000 nM
C[C@@H]1CS(=O)(=O)[C@@H](c2cccs2)CN1C(=O)Nc1ccc(F)c(Cl)c1 [Compound 22, (2R,5R)-N-(3-chloro-4-fluoro-phenyl)-5-methyl-1,1-dioxo-2-(2-thienyl)-1,4-thiazinane-4-carboxamide]	–	> 5000 nM
C[C@H]1CS(=O)(=O)[C@H](c2cccs2)CN1C(=O)c1ccc(Br)c(Cl)c1 [Compound 24, (4-bromo-3-chloro-phenyl)-[(2S,5S)-5-methyl-1,1-dioxo-2-(2-thienyl)-1,4-thiazinan-4-yl]methanone]	–	100 to 500 nM

From US11464783B2, “Heterocyclic compounds” (Aligos Therapeutics, Inc., priority 2019, dated 2022)
